Patent publication US4062950A, “Amino sugar derivatives” (priority 1973, dated 1977)

How the values were obtained:
saccharase [1] = molecular target: T1, saccharase (Sus scrofa, UniProt P56729); assay: In vitro saccharase test; assay type: biochemical, pig
T1 construct: sucrase subunit of the sucrase-isomaltase complex hydrolyses sucrose
Method: One saccharase inhibitor unit (SIU) is defined as the amount of inhibitor which inhibits two saccharase units to the extent of 50%. One saccharase unit (SU) is the amount of enzyme which under the test conditions specified splits 1 μmol of sucrose to glucose and fructose per minute. The μmols of glucose formed are determined quantitatively by means of the glucose oxidase reaction under conditions under which a further splitting of the sucrose by the saccharase no longer takes place. To carry out the test, 0.05 ml of solubilized saccharase [from the mucous membrane of the small intestine of the pig, according to B. Borgastrom, A. Dahlquist, Acta Chem. Scand. 12, (1958), page 1,997], diluted with 0.1 M sodium maleate buffer of pH 6.0 to a SU content adjusted to 0.12 SU is mixed with 0-20 μg of inhibitor or 0-20 μl of the solution to be tested and brought up to 0.1 ml with 0.1 M sodium maleate buffer of pH 6.0. The mixture is equilibrated for 10 minutes at 35° C and 0.1 ml of an 0.05 M sucrose solution in 0.1 M sodium maleate buffer of pH 6.0, pre-warmed to 35° C, is then added. The mixture is incubated for 20 minutes at 35° C, the saccharase reaction is stopped by addition of 1 ml of glucose oxidase reagent, and the incubation is continued for a further 30 minutes at 35° C. (The glucose oxidase reagent is prepared by dissolving 2 mg of glucose oxidase, Boehringer, No. 15,423, in 100 ml of 0.565 M tris-HCl buffer of pH 7.0 and subsequently adding 1 ml of detergent solution (2 g of Triton X 100 + 8 g of 95% strength and analytical grade ethanol), 1 ml of dianisidine solution (260 mg of o-dianisidine. 2HCl in 20 ml of H2 O) and 0.5 ml of 0.1% strength aqueous peroxidase solution, Boehringer, No. 15,302). Thereafter, 1 ml of 50% strength H2 SO4 is added and a measurement carried out at 545 nm against a corresponding blank. To evaluate the results, the percentage inhibition of the saccharase employed is calculated and converted to SIU/g of SIU/liter from the 50% inhibition point, using a glucose calibration curve.

maltase = assay: In vitro maltase test; assay type: biochemical, pig; settings: Table II
Method: One maltase inhibitor unit (MIU) is defined as the amount of inhibitor which inhibits two maltase units to the extent of 50%. One maltase unit (MU) is the amount of enzyme which in one minute, under the test conditions specified below, splits 1 μmol of maltose into 2 μmol of glucose. The μmol of glucose formed are determined quantitatively by means of the glucose oxidase reaction under conditions such that further splitting of maltose by the maltase no longer takes place. To carry out the test, 0.05 ml of solubilized maltase [from the mucous membrane of the small intestine of the pig, according to B. Borgstrom, A, Dahlquist, Acta Chem, Scan. […] The mixture is equilibrated for 10 minutes at 35° C and 0.1 ml of an 0.05 M maltose solution in 0.1 M sodium maleate buffer of pH 6.0, pre-warmed to 35° C, is then added. The mixture is incubated for 20 minutes at 35° C and the maltase reaction is stopped by addition of 1 ml of the glucose oxidase reagent described above, and the incubation is continued for a further 30 minutes at 35° C. Thereafter, 1 ml of 50% strength sulfuric acid is added and a measurement carried out at 545 nm against a corresponding blank.

saccharase [2] = molecular target: T2, saccharase (Rattus norvegicus, UniProt P23739); assay: In vivo saccharase inhibition (sucrose overfeeding test) in the fasting rat
T2 construct: from tissue; host or cells: intestine of the living rat (endogenous enzyme)
Method: The produce an alimentary hyperglycemia and hyperinsulinaemia, groups of 6 fasting rats are given (a) 2.5 g of sucrose, (b) 2.5 g of maltose or (c) 1 g of boiled starch orally, in aqueous solution or suspension. Six other rats are given the same carbohydrates in the same amount and a glycoside hydrolase inhibitor in the amount indicated. In addition, six other rats are given an appropriate volume of saline. The blood glucose and the serum insulin are then measured at short intervals of time, in the blood from the retro-orbital venous plexus. Blood glucose determinations are carried out in the Auto-Analyser device (Technicon), according to Hoffmann: J. biol.

starch digestion = assay: In vivo starch digestion inhibition (starch feeding test) in the fasting rat

T2 sequence (P23739 1014-1841 limits assumed): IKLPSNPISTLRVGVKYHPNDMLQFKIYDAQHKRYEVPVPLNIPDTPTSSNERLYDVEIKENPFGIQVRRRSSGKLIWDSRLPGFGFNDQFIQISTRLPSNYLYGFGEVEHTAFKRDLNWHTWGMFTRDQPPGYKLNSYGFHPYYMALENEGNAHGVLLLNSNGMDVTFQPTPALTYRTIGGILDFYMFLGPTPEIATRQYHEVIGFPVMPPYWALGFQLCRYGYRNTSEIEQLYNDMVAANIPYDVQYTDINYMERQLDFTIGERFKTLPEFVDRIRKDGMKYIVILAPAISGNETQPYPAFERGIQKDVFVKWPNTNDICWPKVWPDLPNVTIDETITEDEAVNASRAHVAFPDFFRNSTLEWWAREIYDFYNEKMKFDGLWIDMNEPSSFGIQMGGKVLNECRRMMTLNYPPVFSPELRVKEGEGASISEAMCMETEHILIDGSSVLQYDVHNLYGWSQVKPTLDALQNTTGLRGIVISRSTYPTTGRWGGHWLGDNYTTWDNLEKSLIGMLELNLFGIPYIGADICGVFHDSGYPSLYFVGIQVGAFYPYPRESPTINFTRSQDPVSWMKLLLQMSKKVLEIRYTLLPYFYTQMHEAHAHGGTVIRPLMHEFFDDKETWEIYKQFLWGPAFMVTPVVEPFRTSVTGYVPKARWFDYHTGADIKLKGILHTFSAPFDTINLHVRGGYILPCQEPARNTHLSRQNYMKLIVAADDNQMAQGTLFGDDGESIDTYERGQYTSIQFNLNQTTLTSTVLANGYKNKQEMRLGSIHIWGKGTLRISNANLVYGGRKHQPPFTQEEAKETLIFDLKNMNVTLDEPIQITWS
T2 sequence (P23739 2-1013 partner limits assumed): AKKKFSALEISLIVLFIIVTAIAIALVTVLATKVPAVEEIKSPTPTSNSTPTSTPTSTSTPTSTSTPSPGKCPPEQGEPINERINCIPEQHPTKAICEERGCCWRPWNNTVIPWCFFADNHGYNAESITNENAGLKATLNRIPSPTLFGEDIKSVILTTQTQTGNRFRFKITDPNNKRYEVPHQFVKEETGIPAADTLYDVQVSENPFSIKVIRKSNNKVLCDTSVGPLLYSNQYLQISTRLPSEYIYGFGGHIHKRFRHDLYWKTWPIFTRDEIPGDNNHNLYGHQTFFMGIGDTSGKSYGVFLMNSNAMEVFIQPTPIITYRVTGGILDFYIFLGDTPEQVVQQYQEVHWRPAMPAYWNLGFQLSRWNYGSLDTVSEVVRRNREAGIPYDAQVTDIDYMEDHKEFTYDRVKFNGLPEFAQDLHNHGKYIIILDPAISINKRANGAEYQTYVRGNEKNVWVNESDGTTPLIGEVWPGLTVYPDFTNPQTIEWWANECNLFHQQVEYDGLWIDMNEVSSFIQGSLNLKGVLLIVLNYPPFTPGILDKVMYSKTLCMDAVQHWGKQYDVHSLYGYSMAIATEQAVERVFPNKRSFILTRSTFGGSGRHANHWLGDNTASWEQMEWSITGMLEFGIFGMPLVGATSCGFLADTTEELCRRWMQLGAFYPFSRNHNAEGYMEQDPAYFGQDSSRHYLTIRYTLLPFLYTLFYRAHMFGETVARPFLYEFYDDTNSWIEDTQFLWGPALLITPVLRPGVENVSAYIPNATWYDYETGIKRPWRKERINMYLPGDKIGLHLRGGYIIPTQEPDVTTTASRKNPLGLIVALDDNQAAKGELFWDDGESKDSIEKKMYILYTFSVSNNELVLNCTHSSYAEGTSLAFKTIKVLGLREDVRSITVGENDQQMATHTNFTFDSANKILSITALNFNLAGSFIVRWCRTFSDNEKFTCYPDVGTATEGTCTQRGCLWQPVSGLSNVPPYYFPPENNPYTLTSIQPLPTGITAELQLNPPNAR
T1 sequence (P56729 with tags, fused parts or gaps): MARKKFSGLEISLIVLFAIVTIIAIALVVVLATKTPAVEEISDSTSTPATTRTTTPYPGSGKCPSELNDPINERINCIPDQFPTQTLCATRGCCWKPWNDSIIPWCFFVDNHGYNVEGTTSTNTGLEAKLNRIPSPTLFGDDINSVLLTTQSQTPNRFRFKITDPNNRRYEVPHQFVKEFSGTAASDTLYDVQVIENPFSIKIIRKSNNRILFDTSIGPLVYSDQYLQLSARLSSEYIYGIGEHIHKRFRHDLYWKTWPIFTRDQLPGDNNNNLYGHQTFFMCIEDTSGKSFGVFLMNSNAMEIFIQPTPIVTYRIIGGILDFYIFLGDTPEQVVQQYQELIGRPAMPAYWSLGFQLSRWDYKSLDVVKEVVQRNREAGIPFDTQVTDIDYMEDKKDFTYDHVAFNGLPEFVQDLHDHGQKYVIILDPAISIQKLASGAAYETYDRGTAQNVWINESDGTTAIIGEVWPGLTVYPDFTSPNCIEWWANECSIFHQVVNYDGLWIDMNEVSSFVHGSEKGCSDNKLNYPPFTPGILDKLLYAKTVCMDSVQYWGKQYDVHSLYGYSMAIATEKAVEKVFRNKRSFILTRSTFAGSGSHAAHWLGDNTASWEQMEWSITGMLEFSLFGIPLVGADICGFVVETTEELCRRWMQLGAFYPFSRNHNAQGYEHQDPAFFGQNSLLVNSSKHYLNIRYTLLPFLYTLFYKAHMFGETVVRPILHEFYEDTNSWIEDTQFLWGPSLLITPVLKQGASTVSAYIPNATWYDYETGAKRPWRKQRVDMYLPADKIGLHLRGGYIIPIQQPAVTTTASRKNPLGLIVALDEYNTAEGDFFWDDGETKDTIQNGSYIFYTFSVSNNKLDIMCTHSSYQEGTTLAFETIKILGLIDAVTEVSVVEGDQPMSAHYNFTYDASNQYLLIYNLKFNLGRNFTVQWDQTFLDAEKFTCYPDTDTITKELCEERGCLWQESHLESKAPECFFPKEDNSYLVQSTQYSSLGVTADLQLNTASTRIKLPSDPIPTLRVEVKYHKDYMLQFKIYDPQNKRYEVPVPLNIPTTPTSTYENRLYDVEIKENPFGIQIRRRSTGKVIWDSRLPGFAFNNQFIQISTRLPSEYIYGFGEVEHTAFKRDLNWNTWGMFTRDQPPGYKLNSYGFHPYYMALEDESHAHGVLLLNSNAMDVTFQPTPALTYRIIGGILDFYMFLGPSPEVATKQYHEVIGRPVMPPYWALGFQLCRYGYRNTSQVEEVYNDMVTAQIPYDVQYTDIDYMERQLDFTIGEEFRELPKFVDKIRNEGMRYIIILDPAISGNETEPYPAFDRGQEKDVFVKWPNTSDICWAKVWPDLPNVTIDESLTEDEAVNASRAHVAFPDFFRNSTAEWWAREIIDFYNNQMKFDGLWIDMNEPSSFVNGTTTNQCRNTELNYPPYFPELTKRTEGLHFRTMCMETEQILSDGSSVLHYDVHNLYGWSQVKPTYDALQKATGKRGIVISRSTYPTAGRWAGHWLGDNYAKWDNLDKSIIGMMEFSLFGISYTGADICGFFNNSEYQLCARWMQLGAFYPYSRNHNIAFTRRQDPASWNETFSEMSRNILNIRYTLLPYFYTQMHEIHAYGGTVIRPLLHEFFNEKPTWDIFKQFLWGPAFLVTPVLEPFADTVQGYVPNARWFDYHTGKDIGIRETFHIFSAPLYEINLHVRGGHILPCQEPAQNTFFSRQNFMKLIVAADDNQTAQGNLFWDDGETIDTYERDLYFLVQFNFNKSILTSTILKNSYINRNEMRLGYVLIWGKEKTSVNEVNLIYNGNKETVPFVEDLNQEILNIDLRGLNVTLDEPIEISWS

Saccharase Inhibition (saccharase [1]; in vitro, Table II): 21,000 SIU/g | Saccharase Inhibition In Vitro (saccharase [1]; in vitro, Table IV): 21 SIU/mg | saccharase inhibiting activity of isolated product (saccharase [1]; product of the Examples): 21,000 SIU/g | Maltase Inhibition (maltase): 5,000 MIU/g | Blood Glucose (Mean ± SD) (saccharase [2]; 2.5 g sucrose + 25 SIU oral, 15 Min.): 88 ± 11.4 mg% | Blood Glucose (Mean ± SD) (saccharase [2]; 2.5 g sucrose + 25 SIU oral, 30 Min.): 101 ± 12.0 mg% | Blood Glucose (Mean ± SD) (saccharase [2]; 2.5 g sucrose + 25 SIU oral, 45 Min.): 104 ± 7.4 mg% | Blood Glucose (Mean ± SD) (saccharase [2]; 2.5 g sucrose + 50 SIU oral, 15 Min.): 91 ± 9.4 mg% | Blood Glucose (Mean ± SD) (saccharase [2]; 2.5 g sucrose + 50 SIU oral, 30 Min.): 106 ± 7.0 mg% | Blood Glucose (Mean ± SD) (saccharase [2]; 2.5 g sucrose + 50 SIU oral, 45 Min.): 94 ± 9.0 mg% | Blood Glucose (Mean ± SD) (saccharase [2]; 2.5 g sucrose + 100 SIU oral, 15 Min.): 81 ± 7.2 mg% | Blood Glucose (Mean ± SD) (saccharase [2]; 2.5 g sucrose + 100 SIU oral, 30 Min.): 90 ± 8.0 mg% | Blood Glucose (Mean ± SD) (saccharase [2]; 2.5 g sucrose + 100 SIU oral, 45 Min.): 97 ± 1.6 mg% | ED50 (saccharase [2]; read-out: Saccharase Inhibition (ED50 mg/kg), ED50, sucrose, fasting rat, Table IV, read-out: Saccharase Inhibition In Vitro (ED50 mg/kg)): 2.65 mg/kg
Structure (SMILES): C[C@H]1O[C@H](O[C@H]2[C@H](O)[C@@H](O)[C@@H](O[C@H]3[C@H](O)[C@@H](O)C(O)O[C@@H]3CO)O[C@@H]2CO)[C@H](O)[C@@H](O)[C@@H]1N[C@H]1C=C(CO)[C@@H](O[C@H]2O[C@H](CO)[C@@H](O)[C@H](O)[C@H]2O)[C@H](O)[C@H]1O (stereo partly drawn) [Formula V, O-{4,6-bisdesoxy-4-[1 S-(1,4,6/5)-4,5,6-trihydroxy-3-hydroxymethyl-4-O-α-D-glucopyranosyl-(1→4)-cyclohex-2-en-1-ylamino]-α-D-glycopyranosyl}-(1→4)-O-α-D-glucopyranosyl-(1→4)-D-glucopyranose]
Blood Glucose (Mean ± SD) (starch digestion; 1 g starch + 750 AIU oral, 5 Min.): 86 ± 8.5 mg% | Blood Glucose (Mean ± SD) (starch digestion; 1 g starch + 750 AIU oral, 10 Min.): 107 ± 5.0 mg% | Blood Glucose (Mean ± SD) (starch digestion; 1 g starch + 750 AIU oral, 15 Min.): 117 ± 8.7 mg% | Blood Glucose (Mean ± SD) (starch digestion; 1 g starch + 750 AIU oral, 20 Min.): 121 ± 12 mg% | Blood Glucose (Mean ± SD) (starch digestion; 1 g starch + 750 AIU oral, 30 Min.): 126 ± 11 mg% | Blood Glucose (Mean ± SD) (starch digestion; 1 g starch + 750 AIU oral, 45 Min.): 114 ± 3.6 mg% | Blood Glucose (Mean ± SD) (starch digestion; 1 g starch + 1,500 AIU oral, 5 Min.): 77 ± 14 mg% | Blood Glucose (Mean ± SD) (starch digestion; 1 g starch + 1,500 AIU oral, 10 Min.): 92 ± 9.6 mg% | Blood Glucose (Mean ± SD) (starch digestion; 1 g starch + 1,500 AIU oral, 15 Min.): 94 ± 9.5 mg% | Blood Glucose (Mean ± SD) (starch digestion; 1 g starch + 1,500 AIU oral, 20 Min.): 113 ± 9.7 mg% | Blood Glucose (Mean ± SD) (starch digestion; 1 g starch + 1,500 AIU oral, 30 Min.): 112 ± 8.8 mg% | Blood Glucose (Mean ± SD) (starch digestion; 1 g starch + 1,500 AIU oral, 45 Min.): 111 ± 4.2 mg% | Blood Glucose (Mean ± SD) (starch digestion; 1 g starch + 3,000 AIU oral, 5 Min.): 65 ± 5.6 mg% | Blood Glucose (Mean ± SD) (starch digestion; 1 g starch + 3,000 AIU oral, 10 Min.): 101 ± 3.3 mg% | Blood Glucose (Mean ± SD) (starch digestion; 1 g starch + 3,000 AIU oral, 15 Min.): 82 ± 11 mg% | Blood Glucose (Mean ± SD) (starch digestion; 1 g starch + 3,000 AIU oral, 20 Min.): 112 ± 4.5 mg% | Blood Glucose (Mean ± SD) (starch digestion; 1 g starch + 3,000 AIU oral, 30 Min.): 109 ± 6.4 mg% | Blood Glucose (Mean ± SD) (starch digestion; 1 g starch + 3,000 AIU oral, 45 Min.): 104 ± 2.5 mg% | ED50 (starch digestion; ED50, starch, fasting rat, Table VI): 1.61 mg/kg | in vivo inhibition of starch digestion, in words (starch digestion; compared with expectation from in vitro amylase inhibition): much higher than would be expected
